For 1 compound, body weight results are on record in patent US11779628B2, “Use of cell-permeable peptide inhibitors of the JNK signal transduction pathway for the treatment of various diseases” (Xigen Inflammation Ltd., priority 2014, dated 2023).

This series relates to Hep G2 human hepatocarcinoma tumor. Nature of the series: Orthotopic HEP G2 human liver carcinoma, dose/response. Type of series: in vivo, mice. The conditions noted are these: 0.1, 1, 5 mg/kg/inj IV, Q4Dx4. How it is done: The objective of this study was to determine the antitumor activity of XG-102 (dose/response) in the model of SWISS Nude mice bearing the orthotopic Hep G2 human hepatocarcinoma tumor.
For XG-102 administration XG-102 was prepared at the concentration of 1 mg/ml with sterile water (WFI, Aguettant, France). Lt was then cliluted at the concentrations of 0.2 and 0.02 mg/ml with sterile water. All these steps were performed within one hour prior to injection to mice. XG-102 was injected at 0.1, 1 and 5 mg/kg/inj. Four injections were performed, each separated by four days (Q4Dx4).
Twenty four hours before tumor induction, 32 female SWISS Nude mice were irradiated with a γ-source (2.5 Gy, Co^60, INRA, Dijon, France). […]
Mice were monitored every day throughout the study for behaviour and survival. The body weight was monitored twice a week for all mice throughout the study. […]
At D67, 3 mice randomly selected per group during randomization were sacrificed for observation of macroscopic development. […] Histological sections were analyzed by a pathologist expert to determine the metastatic invasion in liver.
For the body weight analysis body weight curves of mice were drawn. Mean body weight change (MBWC): Average weight change of treated animals in grams (weight at day X minus weight at D10) was calculated.
Efficacy parameters were expressed as a percent (T/C %). […]

Regarding `CC(C)C[C@@H](NC(=O)[C@@H](Cc1ccccc1)NC(=O)[C@H]1CCCN1C(=O)[C@@H](CCC(N)=O)NC(=O)[C@H](NC(=O)[C@H]1CCCN1C(=O)[C@@H](CCCNC(=N)N)NC(=O)[C@@H](CO)NC(=O)[C@@H](CCC(N)=O)NC(=O)[C@H](N)CC(=O)O)C(C)C)C(=O)N[C@H](CC(N)=O)C(=O)N[C@H](CC(C)C)C(=O)N[C@@H](C(=O)N[C@@H](C(=O)N1CCC[C@@H]1C(=O)N[C@H](CCCNC(=N)N)C(=O)N[C@H](CCCCN)C(=O)N1CCC[C@@H]1C(=O)N[C@H](CCCNC(=N)N)C(=O)N1CCC[C@@H]1C(=O)N1CCC[C@@H]1C(=O)N[C@H](CCCNC(=N)N)C(=O)N[C@H](CCCNC(=N)N)C(=O)N[C@H](CCCNC(=N)N)C(=O)N[C@H](CCC(N)=O)C(=O)N[C@H](CCCNC(=N)N)C(=O)N[C@H](CCCNC(=N)N)C(=O)N[C@H](CCCCN)C(=O)N[C@H](CCCCN)C(=O)N[C@H](CCCNC(=N)N)C(=O)NCC(=O)O)[C@H](C)O)[C@H](C)O` [XG-102], the body weight result was “no apparent differences occurred for the body weight”.
